Results published in US7262185B2, “Benzazepine derivative, process for producing the same, and use” (Takeda Chemical Industries Ltd., priority 2001, dated 2007).

| Compound | melting point |
| --- | --- |
| CCCCOCCOc1ccc(-c2ccc3c(c2)C=C(C(=O)Nc2ccc(C(O)c4cccc(C)[n+]4[O-])cc2)CCN3CC(C)C)cc1 (stereo not shown) [Compound 98, 7-[4-(2-butoxyethoxy)phenyl]-N-[4-[hydroxy(6-methyl-1-oxidopyridin-2-yl)methyl]phenyl]-1-isobutyl-2,3-dihydro-1H-1-benzazepine-4-carboxamide] | 114 to 116 °C |
| CCCCOCCOc1ccc(-c2ccc3c(c2)C=C(C(=O)Nc2ccc(/C(Cc4nccn4CCC)=N/OC)cc2)CCN3CC(C)C)cc1 [Compound 448, 7-[4-(2-butoxyethoxy)phenyl]-1-isobutyl-N-[4-((1E)-N-methoxy-2-(1-propylimidazol-2-yl)ethanimidoyl)phenyl]-2,3-dihydro-1H-1-benzazepine-4-carboxamide] | 159 to 161 °C |
| CCCCOCCOc1ccc(-c2ccc3c(c2)C=C(C(=O)Nc2ccc([C@H](O)c4ccccn4)cc2)CCN3C=O)cc1 [Compound 75, 7-[4-(2-butoxyethoxy)phenyl]-1-formyl-N-[4-[(S)-hydroxy(2-pyridyl)methyl]phenyl]-2,3-dihydro-1H-1-benzazepine-4-carboxamide] | 130 to 134 °C |
| CCCCOCCOc1ccc(-c2ccc3c(c2)C=C(C(=O)Nc2ccc([C@H](O)c4cccc[n+]4[O-])cc2)CCN3Cc2cc(C)ns2)cc1 [Compound 92, 7-[4-(2-butoxyethoxy)phenyl]-1-(3-methyl-isothiazol-5-ylmethyl)-N-[4-[(S)-hydroxy(1-oxidopyridin-2-yl)methyl]phenyl]-2,3-dihydro-1H-1-benzazepine-4-carboxamide] | 93 to 96 °C |
| CCCCOCCOc1ccc(-c2ccc3c(c2)C=C(C(=O)Nc2ccc(SCc4n[nH]c(=O)n4CCC)cc2)CCN3CC(C)C)cc1 [Compound 65, 7-[4-(2-butoxyethoxy)phenyl]-1-isobutyl-N-[4-[(4-propyl-1H-1,2,4-triazol-5-on-3-yl)methylthio]phenyl]-2,3-dihydro-1H-1-benzazepine-4-carboxamide] | 98 to 101 °C |
| CCCCOCCOc1ccc(-c2ccc3c(c2)C=C(C(=O)Nc2ccc(C(O)c4cccc(C)[n+]4[O-])cc2)CCN3)cc1 (stereo not shown) [Compound 97, 7-[4-(2-butoxyethoxy)phenyl]-N-[4-[hydroxy(6-methyl-1-oxidopyridin-2-yl)methyl]phenyl]-2,3-dihydro-1H-1-benzazepine-4-carboxamide] | 175 to 177 °C |
| CCCCOCCOc1ccc(-c2ccc3c(c2)C=C(C(=O)Nc2ccc([S+]([O-])Cc4nncn4C)cc2)CCN3CCC)cc1 (stereo not shown) [Compound 133, 7-[4-(2-butoxyethoxy)phenyl]-N-[4-(4-methyl-4H-1,2,4-triazol-3-ylmethylsulfinyl)phenyl]-1-propyl-2,3-dihydro-1H-1-benzazepine-4-carboxamide] | 101 to 103 °C |
| CCCCOCCOc1ccc(-c2ccc3c(c2)C=C(C(=O)Nc2ccc(C(O)c4ccc(Cl)c[n+]4[O-])cc2)CCN3CC(C)C)cc1 (stereo not shown) [Compound 110, 7-[4-(2-butoxyethoxy)phenyl]-N-[4-[hydroxy(5-chloro-1-oxidopyridin-2-yl)methyl]phenyl]-1-isobutyl-2,3-dihydro-1H-1-benzazepine-4-carboxamide] | 137 to 139 °C |
| CCCCOCCOc1ccc(-c2ccc3c(c2)C=C(C(=O)Nc2ccc(SCc4nncn4CCC)c(C(F)(F)F)c2)CCN3CC(C)C)cc1 [Compound 42, 7-[4-(2-butoxyethoxy)phenyl]-1-isobutyl-N-[3-trifluoromethyl-4-[(4-propyl-4H-1,2,4-triazol-3-yl)methylthio]phenyl]-2,3-dihydro-1H-1-benzazepine-4-carboxamide] | 131 to 133 °C |
| CCCCOCCOc1ccc(-c2ccc3c(c2)C=C(C(=O)Nc2ccc([S+]([O-])Cc4nncn4C)cc2)CCN3CC(C)C)cc1 (stereo not shown) [Compound 131, 7-[4-(2-butoxyethoxy)phenyl]-N-[4-(4-methyl-4H-1,2,4-triazol-3-ylmethylsulfinyl)phenyl]-1-isobutyl-2,3-dihydro-1H-1-benzazepine-4-carboxamide] | 103 to 105 °C |
